Data as given in patent US20230303570A1, “KINASE INHIBITORS AND USES THEREOF” (ABM Therapeutics Corporation, priority 2020, published 2023).
pIC50: −log10 of the molar value.

The compounds below were run against HPK1 (MAP4K1) (Homo sapiens, UniProt Q92918) (assay: HPK1 (MAP4K1) kinase Lantha screen assay). Details: not given.
HPK1 (MAP4K1), sequence (Q92918 whole entry, species assumed): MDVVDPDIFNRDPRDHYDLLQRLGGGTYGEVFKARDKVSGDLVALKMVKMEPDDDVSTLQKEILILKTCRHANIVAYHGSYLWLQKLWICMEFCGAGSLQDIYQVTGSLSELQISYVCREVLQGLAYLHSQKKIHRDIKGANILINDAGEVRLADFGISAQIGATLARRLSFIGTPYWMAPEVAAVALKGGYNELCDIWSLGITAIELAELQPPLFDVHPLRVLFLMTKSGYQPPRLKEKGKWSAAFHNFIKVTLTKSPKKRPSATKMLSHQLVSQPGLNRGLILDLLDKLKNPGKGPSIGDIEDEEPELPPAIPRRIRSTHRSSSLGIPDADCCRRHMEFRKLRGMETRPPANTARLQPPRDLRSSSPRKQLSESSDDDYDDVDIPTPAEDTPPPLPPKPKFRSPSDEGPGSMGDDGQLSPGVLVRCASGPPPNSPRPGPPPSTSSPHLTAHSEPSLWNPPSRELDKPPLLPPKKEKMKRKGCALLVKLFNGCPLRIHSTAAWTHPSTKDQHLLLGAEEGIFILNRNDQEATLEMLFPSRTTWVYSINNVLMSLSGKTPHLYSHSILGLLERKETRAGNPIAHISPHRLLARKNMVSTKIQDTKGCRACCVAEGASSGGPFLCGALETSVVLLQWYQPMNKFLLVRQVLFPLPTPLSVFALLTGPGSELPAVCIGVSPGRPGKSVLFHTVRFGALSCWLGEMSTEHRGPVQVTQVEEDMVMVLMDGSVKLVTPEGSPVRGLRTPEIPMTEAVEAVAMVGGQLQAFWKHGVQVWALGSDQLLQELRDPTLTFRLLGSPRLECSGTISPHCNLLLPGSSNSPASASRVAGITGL
Assay type: biochemical
Method in brief: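 Recombinant MAP4K1 preincubated 10 min with compound (6-point dilution, duplicates) in 50 mM HEPES pH 7.5, 10 mM MgCl2, then reacted with Fluorescein-PKC substrate and ATP for 90 min at room temperature. Antibody detection solution stopped reaction; after 60 min, TR-FRET read at ex 340 nm, em 520/495 nm.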
`Cc1ccc(NC(=O)c2cc(C(F)(F)F)ccn2)cc1C1=Cc2cnc(Nc3ccncc3F)nc2N2CCN=C12` [Compound 219, N-(3-(2-((3-fluoropyridin-4-yl)amino)-8,9-dihydroimidazo[1′,2′:1,6]pyrido[2,3-d]pyrimidin-6-yl)-4-methylphenyl)-4-(trifluoromethyl)picolinamide] was tested, and the pIC50 was 5.00 to 7.00. Compound `Cc1ccc(NC(=O)c2cc(C(F)(F)F)ccn2)cc1C1=Cc2cnc(Nc3ccc(F)cc3)nc2N2CCN=C12` [Compound 227, N-(3-(2-((4-fluorophenyl)amino)-8,9-dihydroimidazo[1′,2′:1,6]pyrido[2,3-d]pyrimidin-6-yl)-4-methylphenyl)-4-(trifluoromethyl)picolinamide] has a pIC50 of over 7.00. In the case of `CNc1ncc2c(n1)N1CCN=C1C(c1cc(NC(=O)C3(C(=O)Nc4ccc(F)cc4)CC3)ccc1Cl)=C2` [Compound 342, N-(4-chloro-3-(2-(methylamino)-8,9-dihydroimidazo[1′,2′:1,6]pyrido[2,3-d]pyrimidin-6-yl)phenyl)-N-(4-fluorophenyl)cyclopropane-1,1-dicarboxamide], the pIC50 was 5.00 to 7.00. Work on `CNc1ncc2c(n1)N1CCN=C1C(c1cc(NC(=O)c3cc(C(F)(F)F)ccn3)ccc1C)=N2` [Compound 124, N-(4-methyl-3-(2-(methylamino)-8,9-dihydroimidazo[2,1-h]pteridin-6-yl)phenyl)-4-(trifluoromethyl)picolinamide] yielded a pIC50 of 5.00 to 7.00. `Cc1cnccc1Nc1ncc2c(n1)N1CCN=C1C(c1cc(NC(=O)c3cc(C(F)(F)F)ccn3)ccc1C)=C2` [Compound 213, N-(4-methyl-3-(2-((3-methylpyridin-4-yl)amino)-8,9-dihydroimidazo[1′,2′:1,6]pyrido[2,3-d]pyrimidin-6-yl)phenyl)-4-(trifluoromethyl)picolinamide] gave a pIC50 of over 7.00.

Each compound was assayed against T1, SRC (Homo sapiens, UniProt P12931) (assay: In vitro kinase assay, SRC (Caliper EZ Reader conversion)). Details: read-out: SRC IC50.
T1 construct: purchased Carna Biosciences
T1 sequence (P12931 whole entry): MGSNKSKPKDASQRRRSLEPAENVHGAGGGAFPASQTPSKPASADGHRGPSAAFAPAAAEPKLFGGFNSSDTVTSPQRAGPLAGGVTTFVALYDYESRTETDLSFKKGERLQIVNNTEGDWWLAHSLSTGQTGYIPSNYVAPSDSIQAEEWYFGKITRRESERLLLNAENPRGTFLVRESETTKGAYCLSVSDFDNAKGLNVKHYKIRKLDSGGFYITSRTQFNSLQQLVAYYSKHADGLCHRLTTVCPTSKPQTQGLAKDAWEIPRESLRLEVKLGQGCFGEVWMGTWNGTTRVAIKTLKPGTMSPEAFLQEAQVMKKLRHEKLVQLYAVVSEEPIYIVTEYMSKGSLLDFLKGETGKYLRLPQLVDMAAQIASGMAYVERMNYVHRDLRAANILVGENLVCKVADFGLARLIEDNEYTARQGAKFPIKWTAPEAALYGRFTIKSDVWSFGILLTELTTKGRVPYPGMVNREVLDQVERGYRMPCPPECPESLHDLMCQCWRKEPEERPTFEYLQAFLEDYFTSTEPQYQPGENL
Assay type: biochemical
Experimental: (§1) The effect of the compounds on the activity of SRC and PAK1 kinase were assessed. SRC and PAK1 kinase enzymes were obtained from Carna Biosciences.
Test compounds were dissolved in 100% DMSO to prepare a 20 mM stock. Compounds were stored in −20° C. and protected from light. […] Saracatinib was used as a positive control for the SRC assay, and FRAX597 was used as a positive control for the PAK1 assay. For the positive controls, a 3-fold serial dilution was made to achieve a total of 10 concentrations. 10 μL 1× Kinase buffer was used as the negative control.
First, 250 nL of the compounds at each dilution were transferred into wells of a 384-well plate. […] Then, 10 μL of enzyme mix was added to the 384-well plate, and the enzymes and compounds were pre-incubated at room temperature for 10 minutes. […] Then, 15 μL of substrate mix was added to a 384-well plate and reacted at room temperature for 30 min and 60 min. The reaction was stopped by adding 30 μL of the stop buffer, and the conversion rate was read using a Caliper EZ Reader.
(§2) Percent inhibition is calculated according to the following equation: […]
(§3) wherein “Conversion %_sample” is the conversion percentage value of the sample; “Conversion %_min” is the average conversion percentage value of the negative control; and “Conversion %_max” is the average conversion percentage value of the positive control.
(§4) The dose-response curve was fitted using GraphPad Prism software (version 5, […]), and the IC50 values for each compounds were calculated by log(inhibitor) vs. response using a variable slope program with the following formula:
(§5) Y=Bottom+(Top-Bottom)/(1+10^((Log IC50−X)*HillSlope))
Compound `COc1cccc(Nc2ncc3c(n2)N2CCCN=C2C(c2ccccc2Cl)=C3)c1` [Compound 60, 6-(2-chlorophenyl)-N-(3-methoxyphenyl)-9,10-dihydro-8H-pyrido[1,6-a:2,3-d′]dipyrimidin-2-amine] has a pIC50 of 5.00 to 7.00. `Fc1cc(N2CCNCC2)ccc1Nc1ncc2c(n1)N1CCN=C1C=C2` [Compound 10, N-(2-fluoro-4-(piperazin-1-yl)phenyl)-8,9-dihydroimidazo[1′,2′:1,6]pyrido[2,3-d]pyrimidin-2-amine] gave a pIC50 of under 5.00. Work on `CCNc1ncc2c(n1)N1CCCN=C1C(c1c(C)ccc3[nH]ncc13)=C2` [Compound 66, N-ethyl-6-(5-methyl-1H-indazol-4-yl)-9,10-dihydro-8H-pyrido[1,6-a:2,3-d′]dipyrimidin-2-amine] yielded a pIC50 of 5.00 to 7.00. Work on `C1=C(c2ccccc2)C2=NCCCN2c2nc(Nc3ccncc3)ncc21` [Compound 53, 6-phenyl-N-(pyridin-4-yl)-9,10-dihydro-8H-pyrido[1,6-a:2,3-d′]dipyrimidin-2-amine] yielded a pIC50 of under 5.00. `COc1ccccc1Nc1ncc2c(n1)N1CCCN=C1C(c1ccccc1Cl)=C2` [Compound 61, 6-(2-chlorophenyl)-N-(2-methoxyphenyl)-9,10-dihydro-8H-pyrido[1,6-a:2,3-d′]dipyrimidin-2-amine] showed a pIC50 of 5.00 to 7.00. With `Fc1cnccc1Nc1ncc2c(n1)N1CCCN=C1C(c1ccccc1)=C2` [Compound 55, N-(3-fluoropyridin-4-yl)-6-phenyl-9,10-dihydro-8H-pyrido[1,6-a:2,3-d′]dipyrimidin-2-amine] the pIC50 was under 5.00. `CCN1CCN(c2ccc(Nc3ncc4c(n3)N3CCN=C3C(c3ccc(Cl)cc3Cl)=C4)c(F)c2)CC1` [Compound 9, 6-(2,4-dichlorophenyl)-N-(4-(4-ethylpiperazin-1-yl)-2-fluorophenyl)-8,9-dihydroimidazo[1′,2′:1,6]pyrido[2,3-d]pyrimidin-2-amine] gave a pIC50 of over 7.00. With `Clc1cccc(Cl)c1C1=Cc2cnc(N3CCN(c4ccncc4)CC3)nc2N2CCN=C12` [Compound 51, 6-(2,6-dichlorophenyl)-2-(4-(pyridin-4-yl)piperazin-1-yl)-8,9-dihydroimidazo[1′,2′:1,6]pyrido[2,3-d]pyrimidine] the pIC50 was 5.00 to 7.00. For `Oc1ccncc1Nc1ncc2c(n1)N1CCCN=C1C(c1ccccc1Cl)=C2` [Compound 67, 3-((6-(2-chlorophenyl)-9,10-dihydro-8H-pyrido[1,6-a:2,3-d′]dipyrimidin-2-yl)amino)pyridin-4-ol], the pIC50 was under 5.00. Compound `CN1CCN(c2ccc(Nc3ncc4c(n3)N3CCN=C3C(c3ccc(Cl)cc3Cl)=C4)c(F)c2)CC1` [Compound 8, 6-(2,4-dichlorophenyl)-N-(2-fluoro-4-(4-methylpiperazin-1-yl)phenyl)-8,9-dihydroimidazo[1′,2′:1,6]pyrido[2,3-d]pyrimidin-2-amine] has a pIC50 of over 7.00. Compound `COc1nc(N2CCNCC2)ccc1Nc1ncc2c(n1)N1CCN=C1C(c1ccncc1)=C2` [Compound 41, N-(2-methoxy-6-(piperazin-1-yl)pyridin-3-yl)-6-(pyridin-4-yl)-8,9-dihydroimidazo[1′,2′:1,6]pyrido[2,3-d]pyrimidin-2-amine] has a pIC50 of under 5.00. `Fc1ccccc1Nc1ncc2c(n1)N1CCCN=C1C(c1ccccc1)=C2` [Compound 56, N-(2-fluorophenyl)-6-phenyl-9,10-dihydro-8H-pyrido[1,6-a:2,3-d′]dipyrimidin-2-amine] gave a pIC50 of under 5.00. Work on `Cc1ccc(NC(=O)c2cc(C(F)(F)F)ccn2)cc1C1=Cc2cnc(N)nc2N2CCCN=C12` [Compound 76, N-(3-(2-amino-9,10-dihydro-8H-pyrido[1,6-a:2,3-d′]dipyrimidin-6-yl)-4-methylphenyl)-4-(trifluoromethyl)picolinamide] yielded a pIC50 of 5.00 to 7.00. `Clc1ccccc1C1=Cc2cnc(Nc3ccncc3)nc2N2CCCN=C12` [Compound 54, 6-(2-chlorophenyl)-N-(pyridin-4-yl)-9,10-dihydro-8H-pyrido[1,6-a:2,3-d′]dipyrimidin-2-amine] was tested, and the pIC50 was under 5.00.

The compounds below were run against PAK1 (Homo sapiens, UniProt Q13153) (assay: In vitro kinase assay, PAK1 (Caliper EZ Reader conversion)). Details: not given.
PAK1, sequence (Q13153 whole entry): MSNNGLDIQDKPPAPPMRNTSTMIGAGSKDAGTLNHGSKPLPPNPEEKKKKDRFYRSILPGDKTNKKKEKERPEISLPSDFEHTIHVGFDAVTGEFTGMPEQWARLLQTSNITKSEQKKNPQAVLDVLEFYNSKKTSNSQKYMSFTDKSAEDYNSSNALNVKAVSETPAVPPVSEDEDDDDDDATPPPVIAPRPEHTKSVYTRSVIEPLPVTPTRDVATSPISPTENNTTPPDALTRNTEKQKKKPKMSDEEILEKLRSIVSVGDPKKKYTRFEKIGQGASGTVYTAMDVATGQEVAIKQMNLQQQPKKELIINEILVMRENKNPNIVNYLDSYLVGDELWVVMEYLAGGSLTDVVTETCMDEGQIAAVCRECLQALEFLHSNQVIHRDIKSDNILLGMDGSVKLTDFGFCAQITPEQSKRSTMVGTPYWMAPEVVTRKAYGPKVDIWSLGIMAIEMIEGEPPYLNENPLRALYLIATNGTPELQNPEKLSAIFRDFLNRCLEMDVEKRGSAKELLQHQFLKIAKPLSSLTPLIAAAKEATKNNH
Assay type: biochemical
Parameters: purchased Carna Biosciences
Experimental: as §1
Test compounds were dissolved in 100% DMSO to prepare a 20 mM stock. Compounds were stored in −20° C. and protected from light. A 100×solution of the compounds were prepared, from which 4-fold serial dilutions was made to achieve a total of 6 concentrations. Saracatinib was used as a positive control for the SRC assay, and FRAX597 was used as a positive control for the PAK1 assay. For the positive controls, a 3-fold serial dilution was made to achieve a total of 10 concentrations. 10 μL 1× Kinase buffer was used as the negative control.
First, 250 nL of the compounds at each dilution were transferred into wells of a 384-well plate. The PAK1 and SRC kinases were diluted to a 2.5×final concentration with 1×Kinase buffer. Then, 10 μL of enzyme mix was added to the 384-well plate, and the enzymes and compounds were pre-incubated at room temperature for 10 minutes. […] Then, 15 μL of substrate mix was added to a 384-well plate and reacted at room temperature for 30 min and 60 min. The reaction was stopped by adding 30 μL of the stop buffer, and the conversion rate was read using a Caliper EZ Reader.
as §2, §3, §4, §5
For `COc1nc(N2CCNCC2)ccc1Nc1ncc2c(n1)N1CCN=C1C(c1ccccc1)=C2` [Compound 37, N-(2-methoxy-6-(piperazin-1-yl)pyridin-3-yl)-6-phenyl-8,9-dihydroimidazo[1′,2′:1,6]pyrido[2,3-d]pyrimidin-2-amine], the pIC50 was under 5.00. `Fc1cc(N2CCNCC2)ccc1Nc1ncc2c(n1)N1CCN=C1C(c1ccncc1)=C2` [Compound 34, N-(2-fluoro-4-(piperazin-1-yl)phenyl)-6-(pyridin-4-yl)-8,9-dihydroimidazo[1′,2′:1,6]pyrido[2,3-d]pyrimidin-2-amine] was tested, and the pIC50 was under 5.00. Work on `Cc1ccccc1C1=Cc2cnc(Nc3ccc(N4CCNCC4)cc3F)nc2N2CCN=C12` [Compound 30, N-(2-fluoro-4-(piperazin-1-yl)phenyl)-6-(o-tolyl)-8,9-dihydroimidazo[1′,2′:1,6]pyrido[2,3-d]pyrimidin-2-amine] yielded a pIC50 of under 5.00. `Fc1cc(N2CCNCC2)ccc1Nc1ncc2c(n1)N1CCN=C1C(c1cscn1)=C2` [Compound 33, N-(2-fluoro-4-(piperazin-1-yl)phenyl)-6-(thiazol-4-yl)-8,9-dihydroimidazo[1′,2′:1,6]pyrido[2,3-d]pyrimidin-2-amine] was tested, and the pIC50 was 5.00 to 7.00. With `Clc1ccccc1C1=Cc2cnc(Nc3ccc(N4CCOCC4)cc3)nc2N2CCN=C12` [Compound 89, 6-(2-chlorophenyl)-N-(4-morpholinophenyl)-8,9-dihydroimidazo[1′,2′:1,6]pyrido[2,3-d]pyrimidin-2-amine] the pIC50 was 5.00 to 7.00. `CN1CCN(c2ccc(Nc3ncc4c(n3)N3CCN=C3C(c3ccc(Cl)cc3Cl)=C4)cc2F)CC1` [Compound 2, 6-(2,4-dichlorophenyl)-N-(3-fluoro-4-(4-methylpiperazin-1-yl)phenyl)-8,9-dihydroimidazo[1′,2′:1,6]pyrido[2,3-d]pyrimidin-2-amine] showed a pIC50 of over 7.00. With `COc1nc(N2CCNCC2)ccc1Nc1ncc2c(n1)N1CCN=C1C(c1ccc(C)cc1)=C2` [Compound 38, N-(2-methoxy-6-(piperazin-1-yl)pyridin-3-yl)-6-(p-tolyl)-8,9-dihydroimidazo[1′,2′:1,6]pyrido[2,3-d]pyrimidin-2-amine] the pIC50 was under 5.00.
